Experimental data as given in patent publication US20240083845A1 (priority 2020, published 2024).

Molecular target: SARS-CoV-2 Mpro (Severe acute respiratory syndrome coronavirus 2, UniProt P0DTD1)
Test: SARS-CoV-2 Mpro enzyme assay (FRET)
Format: biochemical
Conditions: FRET substrate Dabcyl-KTSAVLQSGFRKM-E(Edans)-Amide, 20 nM enzyme, 30 min preincubation at 30° C., mean n=2; read-out: SARS-CoV-2 Mpro enzyme assay pKi (converted)

O=C(CCc1ccc(Cl)cc1Cl)N[C@@H](CC1CC1)C(=O)NC(C[C@@H]1CCNC1=O)C(=O)C(=O)NC1CC1 (stereo partly drawn) [Example 30, N-cyclopropyl-3-((S)-3-cyclopropyl-2-(3-(2,4-dichlorophenyl)propanamido)propanamido)-2-oxo-4-((S)-2-oxopyrrolidin-3-yl)butanamide]
Ki: 20 nM

NC(=O)C(=O)C(C[C@@H]1CCNC1=O)NC(=O)[C@H](CC1CC1)NC(=O)/C=C/c1ccc(Cl)cc1Cl (stereo partly drawn) [Example 20, 3-((S)-3-cyclopropyl-2-((E)-3-(2,4-dichlorophenyl)acrylamido)propanamido)-2-oxo-4-((S)-2-oxopyrrolidin-3-yl)butanamide]
Ki: 100 nM

CC[C@@H](CC(=O)N[C@@H](CC(C)(C)C)C(=O)NC(C[C@@H]1CCNC1=O)C(=O)C(=O)NC1CC1)c1ccccc1 (single isomer, unassigned) [Example 14]
Ki: 7.94 nM

CCNC(=O)C(=O)C(C[C@@H]1CCNC1=O)NC(=O)[C@H](CC1CC1)NC(=O)/C=C/c1ccc(Cl)cc1F (stereo partly drawn) [Example 19, 3-((S)-2-((E)-3-(4-chloro-2-fluorophenyl)acrylamido)-3-cyclopropylpropanamido)-N-ethyl-2-oxo-4-((S)-2-oxopyrrolidin-3-yl)butanamide]
Ki: 12.6 nM

CC[C@H](CC(=O)N[C@@H](CC(C)(C)C)C(=O)NC(C[C@@H]1CCNC1=O)C(=O)C(=O)NC1CC1)c1ccccc1 (single isomer, unassigned) [Example 15]
Ki: 10 nM

O=C(/C=C/c1ccc(Cl)cc1F)N[C@@H](CC1CC1)C(=O)NC(C[C@@H]1CCNC1=O)C(=O)C(=O)NC1CC1 (stereo partly drawn) [Example 28, 3-((S)-2-((E)-3-(4-chloro-2-fluorophenyl)acrylamido)-3-cyclopropylpropanamido)-N-cyclopropyl-2-oxo-4-((S)-2-oxopyrrolidin-3-yl)butanamide]
Ki: 15.8 nM

O=C(/C=C/c1ccc(Cl)cc1F)N[C@@H](CC1CC1)C(=O)NC(C[C@@H]1CCNC1=O)C(=O)C(=O)NC1CC1 (stereo partly drawn) [Example 21, 3-((S)-2-((E)-3-(4-chloro-2-fluorophenyl)acrylamido)-3-cyclopropylpropanamido)-N-cyclopropyl-2-oxo-4-((S)-2-oxopyrrolidin-3-yl)butanamide]
Ki: 7.94 nM

CC(C)(C)NC(=O)C(=O)C(C[C@@H]1CCNC1=O)NC(=O)[C@H](CC1CC1)NC(=O)/C=C/c1ccc(Cl)cc1F (stereo partly drawn) [Example 5, N-(tert-butyl)-3-((S)-2-((E)-3-(4-chloro-2-fluorophenyl)acrylamido)-3-cyclopropylpropanamido)-2-oxo-4-((S)-2-oxopyrrolidin-3-yl)butanamide]
Ki: 501 nM

CC(C)(C)C[C@H](NC(=O)C[C@@H](c1ccccc1)C(F)(F)F)C(=O)NC(C[C@@H]1CCNC1=O)C(=O)C(=O)NC1CC1 (single isomer, unassigned) [Example 16]
Ki: 20 nM

O=C(N[C@@H](CC1CC1)C(=O)NC(C[C@@H]1CCNC1=O)C(=O)C(=O)NC1CC1)OCc1ccccc1 (stereo partly drawn) [Example 29, benzyl ((2S)-3-cyclopropyl-1-((4-(cyclopropylamino)-3,4-dioxo-1-((S)-2-oxopyrrolidin-3-yl)butan-2-yl)amino)-1-oxopropan-2-yl)carbamate]
Ki: 15.8 nM

CC(C)(C)C[C@H](NC(=O)/C=C/c1ccc(Cl)cc1Cl)C(=O)NC(C[C@@H]1CCNC1=O)C(=O)C(=O)NC1CC1 (stereo partly drawn) [Example 10, (2S)-N-(4-(Cyclopropylamino)-3,4-dioxo-1-((S)-2-oxopyrrolidin-3-yl)butan-2-yl)-2-((E)-3-(2,4-dichlorophenyl)acrylamido)-4,4-dimethylpentanamide]
Ki: 6.31 nM

CC(C)(C)C[C@H](NC(=O)/C=C/c1ccc(Cl)cc1F)C(=O)NC(C[C@@H]1CCNC1=O)C(=O)C(N)=O (stereo partly drawn) [Example 22, (2S)-N-(4-amino-3,4-dioxo-1-((S)-2-oxopyrrolidin-3-yl)butan-2-yl)-2-((E)-3-(4-chloro-2-fluorophenyl)acrylamido)-4,4-dimethylpentanamide]
Ki: 6.31 nM
